{
  "source": "paper PMC1660542",
  "about": "“Structure-based discovery of inhibitors of the YycG histidine kinase: New chemical leads to combat Staphylococcus epidermidis infections” (BMC Microbiology, 2006)",
  "key": {"S. epidermidis ATCC12228 [1]": {"tested_on": "S. epidermidis ATCC12228", "assay": "MIC assay (broth dilution in tubes, CLSI)", "type": "cell-based, Staphylococcus epidermidis", "settings": "for MIC: Staphylococcus epidermidis", "excerpt": "(§1) Staphylococcus epidermidis ATCC12228 and RP62A strains were purchased from the American Type Culture Collection (ATCC, Manassas, USA). Staphylococcus aureus ATCC29213, Escherichia coli ATCC25922 and Pseudomonas aeruginosa ATCC27853 were kindly provided by Dr. Bijie Hu at Zhongshan Hospital (Shanghai, China). S. epidermidis strains se527, se886, se847, seG203, Streptococcus pyogenes strain 144, and Streptococcus mutans strain 128 were all clinical isolates from Zhongshan Hospital and Huashan Hospital (Shanghai, China). If not stated otherwise, S. epidermidis and S. aureus strains were grown at 37°C in tryptic soy broth (TSB, Oxoid) containing 0.25% glucose, E. coli and P. aeruginosa strains were grown at 37°C in Luria-Bertani (LB, Oxoid).\n(§2) MIC assays for the antibacterial activities of the compounds were performed according to the broth micro-dilution (in tubes) method of the Clinical and Laboratory Standards Institute (CLSI) of America. The Minimal Bactericidal Concentration (MBC) was obtained by subculturing 100 μl from each negative (no visible bacterial growth) tube from the MIC assay, onto substance-free Mueller-Hinton agar plates. The plates were incubated at 37°C for 24 hours, and the MBC was defined as the lowest concentration of substance which produced subcultures growing no more than five colonies on each plate."}, "[2]": {"assay": "Cytotoxicity on Vero cell (MTT, Cell Proliferation Kit I)", "type": "cell-based, African Green-monkey", "settings": "African green monkey, Vero cells, highest concentration tested 200 μM", "protocol": "(§3) Cytotoxicity of the antibacterial compounds on cultured Vero cell was measured by using the Cell Proliferation Kit I (MTT) (Roche, Indianapolis, USA) according to the manufacturer's protocol. Addition of DMSO (1%) in the medium produced a slight cytotoxicity on Vero cell, which could easily be corrected for. Each assay was performed in quadruplicate and repeated three times. The results were converted to percentage of the control (cells only treated with 1% DMSO) and CC50 (concentrations that produce a 50% cytotoxicity effect on Vero cell) was calculated by the Origin v7.0 software (OriginLab, Northampton, USA). Hemolytic activities of the compounds were determined by using healthy human erythrocytes. The erythrocytes were washed three times in sterile saline and resuspended to 5% prior to the assay. […] Cells without compound treatment and cells with 1% Triton-100 treatment were used as 0% and 100% hemolysis controls, respectively. The cell suspensions were incubated for 1 hour at 37°C and centrifuged at 1000×g for 10 min. Volumes of 100 μl supernatants were transferred to another sterile plate and hemoglobin release from the cells was determined at 570 nm. […] The hemolysis assays were repeated twice."}, "SrrB'": {"tested_on": "SrrB'", "assay": "Inhibition of SrrB' autophosphorylation (Kinase-Glo)", "type": "biochemical, S. epidermidis", "settings": "compound 50 μM, 4 μg protein, 3 μM ATP"}, "[3]": {"assay": "Erythrocyte hemolysis assay", "type": "cell-based, human", "settings": "human, erythrocytes (5% suspension), 1 hour, 37°C", "protocol": "as §3"}, "YycG' protein": {"target": "T1, YycG' protein (Staphylococcus epidermidis, UniProt Q8CU87)", "T1 construct": "of YycG (370aa to 610aa) was amplified by PCR; His-tag (pET28a) (N); made in house; host or cells: E. coli BL21 (pET28a, pETYycG')", "T1 sequence (Q8CU87 370-610)": "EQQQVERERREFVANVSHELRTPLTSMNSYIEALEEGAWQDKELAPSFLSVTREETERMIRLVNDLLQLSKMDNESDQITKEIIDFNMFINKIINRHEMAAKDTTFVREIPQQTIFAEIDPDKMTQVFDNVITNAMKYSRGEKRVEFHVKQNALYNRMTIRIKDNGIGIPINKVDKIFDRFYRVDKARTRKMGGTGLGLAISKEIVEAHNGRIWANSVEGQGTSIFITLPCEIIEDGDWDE", "assay": "Compound-YycG' protein binding assay (SPR, Biacore 3000)", "settings": "SPR sensorgram shape", "excerpt": "The YycG' fragment containing the cytoplasmic signal domains (the HATPase_c and HisKA domain, see Figure 1A) of YycG (370aa to 610aa) was amplified by PCR (with the chromosomal DNA of S. epidermidis ATCC12228 as the template, and (5' […] 3') and (5' […] 3') as the primers. Subsequently, the fragment was digested with BamHI and XholI (TAKARA, Japan) and ligated into the corresponding sites of pET28a (Promega, Madison, USA) to obtain pETYycG'. The expressed YycG' protein was purified with the ProBond™ Purification System (Invitrogen, California, USA), according to the manufacturer's protocol.\nThe in vitro binding affinities of the inhibitor compounds to the YycG' protein was determined using surface plasmon resonance (SPR) biosensor technology on the dual flow cell Biacore 3000 instrument (Biacore AB, Uppsala, Sweden) with a similar method as described in our previous study. Immobilization of the YycG' protein to the hydrophilic carboxymethylated dextran matrix of the sensor chip CM5 (Biacore) was carried out by the standard primary amine coupling reaction. […] The equilibrium constants (KD) evaluating the protein-ligand binding affinity were determined by the steady state or the kinetic state affinity fitting model encoded in the Biacore analysis software."}, "S. epidermidis ATCC12228 [4]": {"tested_on": "S. epidermidis ATCC12228", "assay": "Minimal bactericidal concentration (MBC) assay", "type": "cell-based", "settings": "Staphylococcus epidermidis", "protocol": "as §2"}, "S. epidermidis RP62A": {"tested_on": "S. epidermidis RP62A", "assay": "Minimal bactericidal concentration (MBC) assay", "type": "cell-based", "settings": "Staphylococcus epidermidis; S. epidermidis RP62A; read-out: Minimal bactericidal concentration (MBC)", "protocol": "as §2"}, "S. pyogenes 144": {"tested_on": "S. pyogenes 144", "assay": "MIC assay (broth dilution in tubes, CLSI)", "type": "cell-based, Streptococcus pyogenes", "settings": "Streptococcus pyogenes; S. pyogenes 144; read-out: Minimal inhibitory concentration (MIC)", "excerpt": "as §1, §2"}, "S. mutans 128": {"tested_on": "S. mutans 128", "assay": "MIC assay (broth dilution in tubes, CLSI)", "type": "cell-based, Streptococcus mutans", "settings": "Streptococcus mutans; S. mutans 128; read-out: Minimal inhibitory concentration (MIC)", "excerpt": "as §1, §2"}},
  "note": "Like-named read-outs stand apart in the source and are kept apart here.",
  "data": [
    {"compound": "Cc1ccc(NC(=O)CN2C(=O)S/C(=C\\c3ccc(OCc4cccc(C(O)O)c4)cc3)C2=O)cc1", "note": "[Compound 7]", "values": [
      {"measurement": "Antibacterial effectiveness", "setting": "S. epidermidis ATCC12228 [1]; ATCC12228 versus RP62A", "value": "only effective against the non-biofilm-forming strain ATCC12228"},
      {"measurement": "MIC", "setting": "S. epidermidis ATCC12228 [1]; ATCC12228, Table 2, as tested on S. epidermidis ATCC 12228, read-out: MICs", "value": 0.2, "unit": "µM"},
      {"measurement": "MIC", "setting": "S. epidermidis ATCC12228 [1]; S. epidermidis ATCC12228 (non-biofilm-forming strain), read-out: Minimal inhibitory concentration (MIC)", "value": 0.2, "unit": "µM"},
      {"measurement": "CC50", "setting": "[2]", "value": "> 200", "unit": "µM"},
      {"measurement": "Inhibition of SrrB' phosphorylation", "setting": "SrrB'", "value": 2, "unit": "%"},
      {"measurement": "hemolysis at 1 h", "setting": "[3]; at 4 × MIC (number in parenthesis)", "value": "< 0.1", "unit": "%"},
      {"measurement": "hemolysis at 1 h", "setting": "[3]; at MIC for S. epidermidis ATCC12228", "value": "< 0.1", "unit": "%"},
      {"measurement": "Association/dissociation pattern in SPR", "setting": "YycG' protein", "value": "slow association and slow dissociation"},
      {"measurement": "MBC", "setting": "S. epidermidis ATCC12228 [4]", "value": "> 400", "unit": "µM"},
      {"measurement": "MBC", "setting": "S. epidermidis RP62A", "value": "> 400", "unit": "µM"},
      {"measurement": "MIC", "setting": "S. pyogenes 144", "value": "> 200", "unit": "µM"},
      {"measurement": "MIC", "setting": "S. mutans 128", "value": "> 200", "unit": "µM"}
    ]}
  ]
}
